# Results: patent US11584763B2, “Chromenopyridine derivatives as phosphatidylinositol phosphate kinase inhibitors” (HIBERCELL, INC., priority 2017, dated 2023)
# Columns and labels:
# PIP4K2B = biological target: T1, PIP4K2B (Homo sapiens, UniProt P78356); assay: Trans-FI P kinase assay PIP4K2B (PIP4KtypeIIB inhibition assay); assay type: biochemical; settings: compounds listed under IC50 bin headings; 100 uM GTP; read-out: Trans-FI P kinase assays: PIP4K2B IC50
# T1 construct: made in house; host or cells: E. coli
# T1 sequence (P78356 1-416): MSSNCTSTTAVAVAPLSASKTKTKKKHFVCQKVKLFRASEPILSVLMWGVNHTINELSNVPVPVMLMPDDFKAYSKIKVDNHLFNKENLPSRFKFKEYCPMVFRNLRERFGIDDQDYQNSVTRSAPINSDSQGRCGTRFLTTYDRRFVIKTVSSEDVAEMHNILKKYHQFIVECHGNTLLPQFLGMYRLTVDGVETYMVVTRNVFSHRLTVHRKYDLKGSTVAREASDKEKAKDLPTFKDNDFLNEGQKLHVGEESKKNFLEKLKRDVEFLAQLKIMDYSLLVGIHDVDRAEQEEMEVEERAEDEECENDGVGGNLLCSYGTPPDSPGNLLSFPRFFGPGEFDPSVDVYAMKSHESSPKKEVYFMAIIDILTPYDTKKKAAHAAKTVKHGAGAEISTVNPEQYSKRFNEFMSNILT
# Excerpt: GST tagged PIP4KtypeIIA and B enzymes were overexpressed in E. Coli and purified to >80% homogeneity. Phosphatidyl inositol-5-phosphate (PI5P, Cat. #850152, Avanti Polar Lipids Inc.) was used as the lipid substrate and phosphatidyl ethanolamine (DOPE 18:1, Cat. #850725, Avanti Polar Lipids Inc.) was used as the carrier lipid for assays. Ultrapure ATP and GTP was purchased from Bellbrooke Labs. ADP Glo reagents were obtained from Promega. Transcreener FI reagent was obtained from Bellbrooke labs.
# GST-tagged PIP4KtypeIIB (3.4 uL, 2.77 mg/mL) was diluted to 5 mL using HNE buffer to yield 5× enzyme stock (25 nM)
# Lipid Preparation: In a 10 mL pyrex glass vial, 1 ug of PI5P and 1 ug of DOPE were suspended in 2.5 mL of HEPES buffer mix and 2.5 mL of H:E buffer. The contents were mixed and sonicated for 3 min to yield a translucent lipid stock.
# Compound Preparation: Compounds were stored as 5 mM stocks in neat DMSO as room temperature in glass vials. 5 mM stocks were diluted to 2 mM and then serially diluted (3×) in neat DMSO in 96 well polypropylene plates. From the serially diluted stocks, 3 uL was delivered into 250 uL of 25% DMSO (in water) to generate 5× compound stocks. Typically, the highest compound conc. was 24 uM.
# The assay volume was kept at 25 uL. To each well of the reaction plate, 10 uL of lipid stock (1:1 ratio PI5P:DOPE) was delivered. This was followed by the addition of 5 uL of compound in 25% DMSO. Then, to each well, 5 uL of 25 nM (5×) typeIIB enzyme was delivered. The contents were mixed well and incubated for 1 h at 27 C. After 1 h, reaction was initiated by adding 5 uL of 500 uM GTP and the contents were mixed well with a multi-channel pipetteman. The final concentration of the reagents are as follows: 50 mM HEPES, pH 7.3, 10 mM MgCl2, 20 mM NaCl, 0.01% v/v triton-X100, 5% DMSO, 100 uM GTP, 80 uM (2 ug) PI5P, 2 ug DOPE, and 5 nM PIP4KIIB Typically, the highest conc. of compounds was 4.8 uM and the lowest conc. was 0.
# After 2 h, the reaction was quenched by adding 25 uL of transcreener FI reagent. The contents were incubated at RT for 1 h and the Fluorescence (Ex: 584 Em: 623) was read using Molecular Devices Paradigm plate reader. […] The blanks were averaged and subtracted from all other wells. Using a calibration curve, RFU was converted to uM GDP (product). IC50 was calculated by plotting the residual activity (expressed as % No inhibitor control) vs. log [Inh. conc.]
# PIP4K 2A = biological target: T2, PIP4K 2A (Homo sapiens, UniProt P48426); assay: ADP-glo kinase assay PIP4K 2A; assay type: biochemical; parameters: 4 nM PIP4K2A (full length protein, SignalChem); purchased SignalChem; settings: compounds listed under IC50 bin headings
# T2 sequence (P48426 1-406): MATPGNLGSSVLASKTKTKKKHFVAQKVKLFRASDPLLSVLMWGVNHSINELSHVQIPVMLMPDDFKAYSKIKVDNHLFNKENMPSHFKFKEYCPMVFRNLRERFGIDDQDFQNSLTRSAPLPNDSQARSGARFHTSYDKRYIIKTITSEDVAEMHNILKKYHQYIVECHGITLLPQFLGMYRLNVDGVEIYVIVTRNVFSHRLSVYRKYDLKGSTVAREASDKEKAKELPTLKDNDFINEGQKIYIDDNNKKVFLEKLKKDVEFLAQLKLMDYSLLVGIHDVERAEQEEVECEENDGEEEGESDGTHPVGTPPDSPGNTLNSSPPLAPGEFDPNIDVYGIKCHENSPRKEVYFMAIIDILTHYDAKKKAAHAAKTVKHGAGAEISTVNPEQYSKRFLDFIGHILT
# Protocol: Dilution series of the compounds were prepared in DMSO at 100 times the final assay concentration (n1=n0/3 in 10 points). The compounds were further diluted to three times the assay concentration in assay buffer (20 mM MOPS pH 7.2, 25 mM magnesium chloride, 0.005% Tween 20). 6 μL of the diluted compounds were added to a 384 well assay plate followed by 9 μL of a mix consisting of 4 nM PIP4K2A (full length protein, SignalChem) and 100 μM PI(5)P diC8 (Tebu-Bio). Enzyme and compounds were pre-incubated at room temperature for 15 minutes.
# Then 3 μL of a solution containing 60 μM ATP (Promega) in assay buffer was added to the wells containing compound and enzyme and mixing was performed by pipetting several times. The reaction was incubated at room temperature for 1 h. Then 18 μL of ADP-Glo™ Reagent (Promega) was added to stop the kinase reaction and deplete the unconsumed ATP, mixing was performed by pipetting several times. The plate was incubated at room temperature for 40 minutes before addition of 36 μL of Kinase Detection Reagent (Promega) to convert ADP to ATP and introduce luciferase and luciferin to detect ATP. The reaction was incubated at room temperature for 40 minutes before the luminescence was measured in a in a Victor 3V 1420 multilabel counter (Perkin Elmer).
# Percent inhibition of the compounds as compared to dimethyl sulfoxide treated control samples was calculated. Compound concentration versus percent inhibition were fitted to generate IC50 values.
compound,measurement,setting,value
"CC1Oc2cc(N3CCCC3=O)ccc2-c2cnc(Nc3cncc(NC(=O)c4ccc5c(c4)COB5O)c3)cc21 (centres unmarked) [Example 116, 1-hydroxy-N-(5-((5-methyl-8-(2-oxopyrrolidin-1-yl)-5H-chromeno[4,3-c]pyridin-3-yl)amino)pyridin-3-yl)-1,3-dihydrobenzo[c][1,2]oxaborole-5-carboxamide]",IC50,PIP4K2B,10 to 100 nM
same,IC50,PIP4K 2A,≤ 1 nM
"CC1Oc2cc(N3CCCC3=O)ccc2-c2cnc(Nc3cncc(NC(=O)c4ccc5c(c4)B(O)OC5)c3)cc21 (centres unmarked) [Example 117, 1-hydroxy-N-(5-((5-methyl-8-(2-oxopyrrolidin-1-yl)-5H-chromeno[4,3-c]pyridin-3-yl)amino)pyridin-3-yl)-1,3-dihydrobenzo[c][1,2]oxaborole-6-carboxamide]",IC50,PIP4K2B,10 to 100 nM
same,IC50,PIP4K 2A,1 to 10 nM
"CC1Oc2cc(N3CCCC3=O)ccc2-c2cnc(Nc3cncc(NC(=O)c4cccc5c4COB5O)c3)cc21 (centres unmarked) [Example 118, 1-hydroxy-N-(5-((5-methyl-8-(2-oxopyrrolidin-1-yl)-5H-chromeno[4,3-c]pyridin-3-yl)amino)pyridin-3-yl)-1,3-dihydrobenzo[c][1,2]oxaborole-4-carboxamide]",IC50,PIP4K2B,10 to 100 nM
same,IC50,PIP4K 2A,1 to 10 nM
"CC1Oc2cc(N3CCCC3=O)ccc2-c2cnc(Nc3cncc(NC(=O)c4ccc(F)cc4)c3)cc21 (centres unmarked) [Example 119, 4-fluoro-N-(5-((5-methyl-8-(2-oxopyrrolidin-1-yl)-5H-chromeno[4,3-c]pyridin-3-yl)amino)pyridin-3-yl)benzamide]",IC50,PIP4K2B,10 to 100 nM
same,IC50,PIP4K 2A,10 to 100 nM
"CC1Oc2cc(N3CCCC3=O)ccc2-c2cnc(Nc3cncc(NC(=O)c4cccc(F)c4)c3)cc21 (centres unmarked) [Example 120, 3-fluoro-N-(5-((5-methyl-8-(2-oxopyrrolidin-1-yl)-5H-chromeno[4,3-c]pyridin-3-yl)amino)pyridin-3-yl)benzamide]",IC50,PIP4K2B,> 1000 nM
same,IC50,PIP4K 2A,1 to 10 nM
"COc1cccc(C(=O)Nc2cncc(Nc3cc4c(cn3)-c3ccc(N5CCCC5=O)cc3OC4C)c2)c1 (centres unmarked) [Example 121, 3-methoxy-N-(5-((5-methyl-8-(2-oxopyrrolidin-1-yl)-5H-chromeno[4,3-c]pyridin-3-yl)amino)pyridin-3-yl)benzamide]",IC50,PIP4K2B,1 to 10 nM
same,IC50,PIP4K 2A,≤ 1 nM
"COc1ccc(C(=O)Nc2cncc(Nc3cc4c(cn3)-c3ccc(N5CCCC5=O)cc3OC4C)c2)cc1 (centres unmarked) [Example 122, 4-methoxy-N-(5-((5-methyl-8-(2-oxopyrrolidin-1-yl)-5H-chromeno[4,3-c]pyridin-3-yl)amino)pyridin-3-yl)benzamide]",IC50,PIP4K2B,10 to 100 nM
same,IC50,PIP4K 2A,1 to 10 nM
"CC1Oc2cc(N3CCCC3=O)ccc2-c2cnc(Nc3cncc(NC(=O)c4cccc5[nH]ccc45)c3)cc21 (centres unmarked) [Example 123, N-(5-((5-methyl-8-(2-oxopyrrolidin-1-yl)-5H-chromeno[4,3-c]pyridin-3-yl)amino)pyridin-3-yl)-1H-indole-4-carboxamide]",IC50,PIP4K2B,1 to 10 nM
same,IC50,PIP4K 2A,1 to 10 nM
"CC1Oc2cc(N3CCCC3=O)ccc2-c2cnc(Nc3cncc(NC(=O)c4ccnnc4)c3)cc21 (centres unmarked) [Example 125, N-(5-((5-methyl-8-(2-oxopyrrolidin-1-yl)-5H-chromeno[4,3-c]pyridin-3-yl)amino)pyridin-3-yl)pyridazine-4-carboxamide]",IC50,PIP4K2B,10 to 100 nM
same,IC50,PIP4K 2A,1 to 10 nM
"CC1Oc2cc(N3CCCC3=O)ccc2-c2cnc(Nc3cncc(NC(=O)c4cncc(N)n4)c3)cc21 (centres unmarked) [Example 126, 6-amino-N-(5-((5-methyl-8-(2-oxopyrrolidin-1-yl)-5H-chromeno[4,3-c]pyridin-3-yl)amino)pyridin-3-yl)pyrazine-2-carboxamide]",IC50,PIP4K2B,10 to 100 nM
same,IC50,PIP4K 2A,1 to 10 nM
"CC(=O)Nc1cc(Nc2cc3c(cn2)-c2ccc(N4CCCC4=O)cc2OC3C)cnn1 (centres unmarked) [Example 129, N-(5-((5-methyl-8-(2-oxopyrrolidin-1-yl)-5H-chromeno[4,3-c]pyridin-3-yl)amino)pyridazin-3-yl)acetamide]",IC50,PIP4K2B,10 to 100 nM
same,IC50,PIP4K 2A,1 to 10 nM
"CC(CC(=O)Nc1cncc(Nc2cc3c(cn2)-c2ccc(N4CCCC4=O)cc2OC3C)c1)c1ccccc1 (centres unmarked) [Example 132, N-(5-((5-methyl-8-(2-oxopyrrolidin-1-yl)-5H-chromeno[4,3-c]pyridin-3-yl)amino)pyridin-3-yl)-3-phenylbutanamide]",IC50,PIP4K2B,10 to 100 nM
same,IC50,PIP4K 2A,1 to 10 nM
"CC(Cc1ccccc1)C(=O)Nc1cncc(Nc2cc3c(cn2)-c2ccc(N4CCCC4=O)cc2OC3C)c1 (centres unmarked) [Example 133, 2-methyl-N-(5-((5-methyl-8-(2-oxopyrrolidin-1-yl)-5H-chromeno[4,3-c]pyridin-3-yl)amino)pyridin-3-yl)-3-phenylpropanamide]",IC50,PIP4K2B,10 to 100 nM
same,IC50,PIP4K 2A,1 to 10 nM
"CC1Oc2cc(N3CCCC3=O)ccc2-c2cnc(Nc3cncc(NC(=O)C(O)Cc4ccccc4)c3)cc21 (centres unmarked) [Example 134, 2-hydroxy-N-(5-((5-methyl-8-(2-oxopyrrolidin-1-yl)-5H-chromeno[4,3-c]pyridin-3-yl)amino)pyridin-3-yl)-3-phenylpropanamide]",IC50,PIP4K2B,10 to 100 nM
same,IC50,PIP4K 2A,1 to 10 nM
"CC1Oc2cc(N3CCCC3=O)ccc2-c2cnc(Nc3cncc(NC(=O)C4CCCO4)c3)cc21 (centres unmarked) [Example 135, N-(5-((5-methyl-8-(2-oxopyrrolidin-1-yl)-5H-chromeno[4,3-c]pyridin-3-yl)amino)pyridin-3-yl)tetrahydrofuran-2-carboxamide]",IC50,PIP4K2B,10 to 100 nM
same,IC50,PIP4K 2A,1 to 10 nM
"CC1Oc2cc(N3CCCC3=O)ccc2-c2cnc(Nc3cncc(NC(=O)c4ccc5c(c4)OCO5)c3)cc21 (centres unmarked) [Example 136, N-(5-((5-methyl-8-(2-oxopyrrolidin-1-yl)-5H-chromeno[4,3-c]pyridin-3-yl)amino)pyridin-3-yl)benzo[d][1,3]dioxole-5-carboxamide]",IC50,PIP4K2B,10 to 100 nM
same,IC50,PIP4K 2A,1 to 10 nM
